Reference: patent US20240043404A1 (AbbVie Inc., priority 2009, published 2024)
Read-outs that look alike come from different tables or passages of the source.

Key:
RS4;11 cells = assay: RS4;11 cell viability assay (CellTiter Glo); type: cell-based, human; settings: Homo sapiens, read-out: RS4;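 also: acute lymphoblastic leukemia line RS4,11, EC50 derived from percentage of viable cells after treatment relative to untreated controls, cell killing taken as a measure of Bcl-2 inhibition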
Method: The acute lymphoblastic leukemia (ALL) cell line RS4;11 was used as the primary human cell line to assess the cellular activity of Bcl-2 selective agents in vitro and their efficacy in vivo.
Cell cytotoxicity EC50 values were assessed using CellTiter Glo (Promega) according to the manufacturer's recommendations. The EC50 values were determined as a percentage of viable cells following treatment compared to the untreated control cells.

Bcl-2 = Bcl-2 (Homo sapiens (Human), UniProt P10415); assay: Time Resolved-Fluorescence Resonance Energy Transfer (TR-FRET) Bcl-2 binding assay
Method: The samples are then mixed on a shaker for 1 minute and incubated for an additional 3 hours at room temperature. For each assay, the probe/antibody and protein/probe/antibody were included on each assay plate as negative and positive controls, respectively.
The samples were then mixed on a shaker for 1 minute and incubated for an additional 3 hours at room temperature. For each assay, the probe/antibody and protein/probe/antibody were included on each assay plate as negative and positive controls, respectively.

[1] = RS4-11, 48 h, 50,000 cells per well, 10% human serum, 48 hours, 11 EC50 Values
[2] = RS4-11, Table 5, direct comparison Z=N with corresponding analogs Z=C, 11 EC50
[3] = Table 5, direct comparison Z=N with corresponding analogs Z=C, read-out: Bcl-2 FRET ki
[4] = GST-Bcl-2 1 nM, F-Bak peptide probe 100 nM, Tb-anti-GST 1 nM, < means below limit of detection, read-out: TR-FRET Bcl-2 Binding Ki

Sequence of Bcl-2 (P10415 whole entry): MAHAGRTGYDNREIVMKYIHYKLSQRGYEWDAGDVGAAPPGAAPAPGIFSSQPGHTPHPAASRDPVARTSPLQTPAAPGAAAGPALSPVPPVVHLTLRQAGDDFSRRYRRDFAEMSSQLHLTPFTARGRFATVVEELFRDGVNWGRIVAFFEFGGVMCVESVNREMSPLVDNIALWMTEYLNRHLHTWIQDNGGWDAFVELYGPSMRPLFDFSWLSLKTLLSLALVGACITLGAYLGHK

| SMILES | EC50 (RS4;11 cells; [1]) [nM] | EC50 (RS4;11 cells; [2]) [nM] | Ki (Bcl-2; [3]) [nM] | also measured |
| --- | --- | --- | --- | --- |
| CN1CCC(Nc2ccc(S(=O)(=O)NC(=O)c3ccc(N4CCN(CC5=C(c6ccc(Cl)cc6)CC(C)(C)CC5)CC4)cc3Oc3cnc4[nH]ccc4c3)cc2[N+](=O)[O-])CC1 [Example 4, 4-(4-{[2-(4-chlorophenyl)-4,4-dimethylcyclohex-1-en-1-yl]methyl}piperazin-1-yl)-N-({4-[(1-methylpiperidin-4-yl)amino]-3-nitrophenyl}sulfonyl)-2-(1H-pyrrolo[2,3-b]pyridin-5-yloxy)benzamide] | 18.5 | 19 | < 0.01 |  |
| CC1(C)CCC(CN2CCN(c3ccc(C(=O)NS(=O)(=O)c4ccc(OC[C@H]5CC[C@H](O)CC5)c([N+](=O)[O-])c4)c(Oc4cnc5[nH]ccc5c4)c3)CC2)=C(c2ccc(Cl)cc2)C1 [Example 196, Trans-4-(4-{[2-(4-chlorophenyl)-4,4-dimethylcyclohex-1-en-1-yl]methyl}piperazin-1-yl)-N-({4-[(4-hydroxycyclohexyl)methoxy]-3-nitrophenyl}sulfonyl)-2-(1H-pyrrolo[2,3-b]pyridin-5-yloxy)benzamide] |  |  |  | Ki (Bcl-2; [4]): < 0.01 nM |
| CC1(C)CCC(CN2CCN(c3ccc(C(=O)NS(=O)(=O)c4ccc(OC[C@H]5CCN(C6COC6)C5)c([N+](=O)[O-])c4)c(Oc4cnc5[nH]ccc5c4)c3)CC2)=C(c2ccc(Cl)cc2)C1 [Example 184, 4-(4-{[2-(4-chlorophenyl)-4,4-dimethylcyclohex-1-en-1-yl]methyl}piperazin-1-yl)-N-[(3-nitro-4-{[(3S)-1-oxetan-3-ylpyrrolidin-3-yl]methoxy}phenyl)sulfonyl]-2-(1H-pyrrolo[2,3-b]pyridin-5-yloxy)benzamide] | 23.2 |  |  | Ki (Bcl-2; [4]): < 0.01 nM |
| CC1(C)CCC(CN2CCN(c3ccc(C(=O)NS(=O)(=O)c4ccc(OC[C@H]5CC[C@@H](N6CCOCC6)C5)c([N+](=O)[O-])c4)c(Oc4cnc5[nH]ccc5c4)c3)CC2)=C(c2ccc(Cl)cc2)C1 (relative stereo) [Example 188] | 16.4 |  |  | Ki (Bcl-2): < 0.01 nM |
| CC1(C)CCC(CN2CCN(c3ccc(C(=O)NS(=O)(=O)c4ccc(N[C@H]5CC[C@H](N6CCOCC6)CC5)c([N+](=O)[O-])c4)c(Oc4cnc5[nH]ccc5c4)c3)CC2)=C(c2ccc(Cl)cc2)C1 [Example 9, Trans-4-(4-{[2-(4-chlorophenyl)-4,4-dimethylcyclohex-1-en-1-yl]methyl}piperazin-1-yl)-N-({4-[(4-morpholin-4-ylcyclohexyl)amino]-3-nitrophenyl}sulfonyl)-2-(1H-pyrrolo[2,3-b]pyridin-5-yloxy)benzamide] | 14.8 | 15 | < 0.01 |  |
| CC1(C)CCC(CN2CCN(c3ccc(C(=O)NS(=O)(=O)c4ccc(OCC5CCN(C6COC6)CC5)c([N+](=O)[O-])c4)c(Oc4cnc5[nH]ccc5c4)c3)CC2)=C(c2ccc(Cl)cc2)C1 [Example 191, 4-(4-{[2-(4-chlorophenyl)-4,4-dimethylcyclohex-1-en-1-yl]methyl}piperazin-1-yl)-N-({3-nitro-4-[(1-oxetan-3-ylpiperidin-4-yl)methoxy]phenyl}sulfonyl)-2-(1H-pyrrolo[2,3-b]pyridin-5-yloxy)benzamide] | 6.91 |  |  | Ki (Bcl-2; [4]): < 0.01 nM |
| CC1(C)CC(c2ccc(Cl)cc2)=C(CN2CCN(c3ccc(C(=O)NS(=O)(=O)c4ccc(NCC5CCOCC5)c([N+](=O)[O-])c4)c(Oc4cnc5[nH]ccc5c4)c3)CC2)CO1 [Example 15, 4-(4-{[4-(4-chlorophenyl)-6,6-dimethyl-5,6-dihydro-2H-pyran-3-yl]methyl}piperazin-1-yl)-N-({3-nitro-4-[(tetrahydro-2H-pyran-4-ylmethyl)amino]phenyl}sulfonyl)-2-(1H-pyrrolo[2,3-b]pyridin-5-yloxy)benzamide] | 12.8 | 13 | < 0.01 | Ki (Bcl-2; [4]): < 0.01 nM |
| CC1(C)CCC(CN2CCN(c3ccc(C(=O)NS(=O)(=O)c4ccc(OC[C@H]5CC[C@H](O)CC5)c([N+](=O)[O-])c4)c(Oc4cnc5[nH]ccc5c4)c3)CC2)=C(c2ccc(Cl)cc2)C1 [Example 120, 2-(1H-pyrrolo[2,3-b]pyridin-5-yloxy)-4-(4-((2-(4-chlorophenyl)-4,4-dimethylcyclohex-1-enyl)methyl)piperazin-1-yl)-N-(4-((trans-4-hydroxycyclohexyl)methoxy)-3-nitrophenylsulfonyl)benzamide] | 1.47 |  |  | Ki (Bcl-2; [4]): < 0.01 nM |
| COCCNc1ccc(S(=O)(=O)NC(=O)c2ccc(N3CCN(CC4=C(c5ccc(Cl)cc5)CC(C)(C)CC4)CC3)cc2Oc2cnc3[nH]ccc3c2)cc1[N+](=O)[O-] [Example 10, 4-(4-{[2-(4-chlorophenyl)-4,4-dimethylcyclohex-1-en-1-yl]methyl}piperazin-1-yl)-N-({4-[(2-methoxyethyl)amino]-3-nitrophenyl}sulfonyl)-2-(1H-pyrrolo[2,3-b]pyridin-5-yloxy)benzamide] | 52 | 52 | < 0.01 |  |
| CC1(C)CCC(CN2CCN(c3ccc(C(=O)NS(=O)(=O)c4ccc(NC[C@H]5CCCOC5)c([N+](=O)[O-])c4)c(Oc4cnc5[nH]ccc5c4)c3)CC2)=C(c2ccc(Cl)cc2)C1 [Example 13, 4-(4-{[2-(4-chlorophenyl)-4,4-dimethylcyclohex-1-en-1-yl]methyl}piperazin-1-yl)-N-[(3-nitro-4-{[(3R)-tetrahydro-2H-pyran-3-ylmethyl]amino}phenyl)sulfonyl]-2-(1H-pyrrolo[2,3-b]pyridin-5-yloxy)benzamide] | 23.2 | 23 | < 0.01 |  |
| CC1(C)CCC(CN2CCN(c3ccc(C(=O)NS(=O)(=O)c4ccc(OCC5COCCO5)c([N+](=O)[O-])c4)c(Oc4cnc5[nH]ccc5c4)c3)CC2)=C(c2ccc(Cl)cc2)C1 (stereo not shown) [Example 12, 4-(4-{[2-(4-chlorophenyl)-4,4-dimethylcyclohex-1-en-1-yl]methyl}piperazin-1-yl)-N-{[4-(1,4-dioxan-2-ylmethoxy)-3-nitrophenyl]sulfonyl}-2-(1H-pyrrolo[2,3-b]pyridin-5-yloxy)benzamide] | 34.7 | 35 | < 0.01 |  |
| CC1(C)CCC(CN2CCN(c3ccc(C(=O)NS(=O)(=O)c4cnc(OC[C@@H]5CCN(CC(F)F)C5)c(Cl)c4)c(Oc4cnc5[nH]ccc5c4)c3)CC2)=C(c2ccc(Cl)cc2)C1 [Example 281, N-[(5-chloro-6-{[(3R)-1-(2,2-difluoroethyl)pyrrolidin-3-yl]methoxy}pyridin-3-yl)sulfonyl]-4-(4-{[2-(4-chlorophenyl)-4,4-dimethylcyclohex-1-en-1-yl]methyl}piperazin-1-yl)-2-(1H-pyrrolo[2,3-b]pyridin-5-yloxy)benzamide] | 654 |  |  |  |
| COCCNc1ccc(S(=O)(=O)NC(=O)c2ccc(N3CCN(CC4=C(c5ccc(Cl)cc5)CC(C)(C)CC4)CC3)cc2Oc2ccc3[nH]ccc3c2)cc1[N+](=O)[O-] [Example 20, 4-(4-{[2-(4-chlorophenyl)-4,4-dimethylcyclohex-1-en-1-yl]methyl}piperazin-1-yl)-2-(1H-indol-5-yloxy)-N-({4-[(2-methoxyethyl)amino]-3-nitrophenyl}sulfonyl)benzamide] | 191 | 191 |  | EC50 (RS4;11 cells; RS4-11, Table 4, selected compounds in U.S. Pat. Application No. 12/631404, 11 EC50): 191 nM |
| CC1(C)CCC(CN2CCN(c3ccc(C(=O)NS(=O)(=O)c4cnc(OCC5CCOCC5)c(C#N)c4)c(Oc4cnc5[nH]ccc5c4)c3)CC2)=C(c2ccc(Cl)cc2)C1 [Example 36, 4-(4-{[2-(4-chlorophenyl)-4,4-dimethylcyclohex-1-en-1-yl]methyl}piperazin-1-yl)-N-{[5-cyano-6-(tetrahydro-2H-pyran-4-ylmethoxy)pyridin-3-yl]sulfonyl}-2-(1H-pyrrolo[2,3-b]pyridin-5-yloxy)benzamide] | 181 |  |  |  |
| CC1(C)CCC(CN2CCN(c3ccc(C(=O)NS(=O)(=O)c4ccc(NC5CCN(C6CCOCC6)CC5)c([N+](=O)[O-])c4)c(Oc4ccc5[nH]ccc5c4)c3)CC2)=C(c2ccc(Cl)cc2)C1 [Example 89, 4-(4-{[2-(4-chlorophenyl)-4,4-dimethylcyclohex-1-en-1-yl]methyl}piperazin-1-yl)-2-(1H-indol-5-yloxy)-N-({3-nitro-4-[(1-tetrahydro-2H-pyran-4-ylpiperidin-4-yl)amino]phenyl}sulfonyl)benzamide] | 64.5 | 64 |  | Ki (Bcl-2; read-out: Bcl-2 FRET ki): 0.074 nM |
| CC1(C)CCC(CN2CCN(c3ccc(C(=O)NS(=O)(=O)c4ccc(NC[C@@H]5CCCOC5)c([N+](=O)[O-])c4)c(Oc4cnc5[nH]ccc5c4)c3)CC2)=C(c2ccc(Cl)cc2)C1 [Example 11, 4-(4-{[2-(4-chlorophenyl)-4,4-dimethylcyclohex-1-en-1-yl]methyl}piperazin-1-yl)-N-[(3-nitro-4-{[(3S)-tetrahydro-2H-pyran-3-ylmethyl]amino}phenyl)sulfonyl]-2-(1H-pyrrolo[2,3-b]pyridin-5-yloxy)benzamide] | 13.9 | 14 |  |  |
| CC1(C)CCC(CN2CCN(c3ccc(C(=O)NS(=O)(=O)c4cnc(N[C@@H]5CCN(C(CF)CF)C5)c(Cl)c4)c(Oc4cnc5[nH]ccc5c4)c3)CC2)=C(c2ccc(Cl)cc2)C1 [Example 231, N-[(5-chloro-6-{[(3R)-1-(1,3-difluoropropan-2-yl)pyrrolidin-3-yl]amino}pyridin-3-yl)sulfonyl]-4-(4-{[2-(4-chlorophenyl)-4,4-dimethylcyclohex-1-en-1-yl]methyl}piperazin-1-yl)-2-(1H-pyrrolo[2,3-b]pyridin-5-yloxy)benzamide] | 523 |  |  |  |
| CC1(C)CCC(CN2CCN(c3ccc(C(=O)NS(=O)(=O)c4ccc(NCc5ccc(O)cc5)c([N+](=O)[O-])c4)c(Oc4cnc5[nH]ccc5c4)c3)CC2)=C(c2ccc(Cl)cc2)C1 [Example 185, 4-(4-{[2-(4-chlorophenyl)-4,4-dimethylcyclohex-1-en-1-yl]methyl}piperazin-1-yl)-N-({4-[(4-hydroxybenzyl)amino]-3-nitrophenyl}sulfonyl)-2-(1H-pyrrolo[2,3-b]pyridin-5-yloxy)benzamide] | 27.5 |  |  |  |
